Data reported in paper PMC11012124, “Synthesis of Novel Triazine-Based Chalcones and 8,9-dihydro-7H-pyrimido[4,5-b][1,4]diazepines as Potential Leads in the Search of Anticancer, Antibacterial and Antifungal Agents” (International Journal of Molecular Sciences, 2024).

Experiments:
Experiment in all cases: cells
UACC-257 = conditions: Homo sapiens, UACC-257, 48 h
SK-MEL-2 = conditions: Homo sapiens, SK-MEL-2, 48 h
NCI-H460 = conditions: Homo sapiens, NCI-H460, 48 h
SF-539 = conditions: Homo sapiens, SF-539, 48 h
HCT-116 = conditions: Homo sapiens, HCT-116, 48 h
UACC-62 = conditions: Homo sapiens, UACC-62, 48 h
SK-MEL-28 = conditions: Homo sapiens, SK-MEL-28, 48 h
CCRF-CEM = conditions: Homo sapiens, 48 h
NCI-H522 = conditions: Homo sapiens, NCI-H522, 48 h
LOX IMVI = conditions: Homo sapiens, 48 h
786-0 = conditions: Homo sapiens, 786-0, 48 h
MDA-MB-468 = conditions: Homo sapiens, MDA-MB-468, 48 h
K-562 = conditions: Homo sapiens, K562, 48 h
EKVX = conditions: Homo sapiens, 48 h
A498 = conditions: Homo sapiens, A498, 48 h
SN12C = conditions: Homo sapiens, 48 h
COLO 205 = conditions: Homo sapiens, COLO 205, 48 h
M14 = conditions: Homo sapiens, M14, 48 h
HS 578T = conditions: Homo sapiens, 48 h
A549/ATCC = conditions: Homo sapiens, A549, 48 h
PC-3 = conditions: Homo sapiens, PC-3, 48 h
SK-MEL-5 = conditions: Homo sapiens, SK-MEL-5, 48 h
HOP-92 = conditions: Homo sapiens, HOP-92, 48 h
MOLT-4 = conditions: Homo sapiens, MOLT-4, 48 h
HCC-2998 = conditions: Homo sapiens, HCC 2998, 48 h
SNB-75 = conditions: Homo sapiens, SNB-75, 48 h
CAKI-1 = conditions: Homo sapiens, CAKI-1, 48 h
HL-60(TB) = conditions: Homo sapiens, HL-60, 48 h
SNB-19 = conditions: Homo sapiens, SNB-19, 48 h
SF-268 = conditions: Homo sapiens, SF-268, 48 h
T-47D = conditions: Homo sapiens, T47D, 48 h
KM12 = conditions: Homo sapiens, KM12, 48 h
UO-31 = conditions: Homo sapiens, UO-31, 48 h
OVCAR-3 = conditions: Homo sapiens, OVCAR-3, 48 h
MDA-MB-231/ATCC = conditions: Homo sapiens, MDA-MB-231, 48 h
HT29 = conditions: Homo sapiens, HT-29, 48 h
U251 = conditions: Homo sapiens, U-251, 48 h

Question: `CN(C)c1nc(NCCNS(=O)(=O)c2ccc(C(=O)/C=C/c3ccc(C(F)(F)F)cc3)cc2)nc(Nc2ccc(F)cc2)n1` [24g] was tested. Which GI50 (UACC-257) did it give?
Answer: 11 µM

Question: What about the CC50 (UACC-257; read-out: LC50) of the same compound?
Answer: 25 µM

Question: What about the GI50 (SK-MEL-2) of the same compound?
Answer: 9.45 µM

Question: And the CC50 (SK-MEL-2; read-out: LC50)?
Answer: 22.3 µM

Question: And the GI50 (NCI-H460)?
Answer: 4.09 µM

Question: What about the CC50 (NCI-H460; read-out: LC50) of the same compound?
Answer: 14.9 µM

Question: And the GI50 (SF-539)?
Answer: 10.7 µM

Question: And the CC50 (SF-539; read-out: LC50, SF-539, 48 h)?
Answer: 22.5 µM

Question: And the GI50 (HCT-116)?
Answer: 1.68 µM

Question: What about the CC50 (HCT-116; read-out: LC50) of the same compound?
Answer: 3.13 µM

Question: What about the GI50 (UACC-62) of the same compound?
Answer: 6.24 µM

Question: What about the CC50 (UACC-62; read-out: LC50) of the same compound?
Answer: 19.4 µM

Question: What about the GI50 (SK-MEL-28) of the same compound?
Answer: 10.4 µM

Question: And the CC50 (SK-MEL-28; read-out: LC50)?
Answer: 22.2 µM

Question: What about the GI50 (CCRF-CEM) of the same compound?
Answer: 3.79 µM

Question: What about the CC50 (CCRF-CEM; read-out: LC50) of the same compound?
Answer: > 100 µM

Question: What about the GI50 (NCI-H522) of the same compound?
Answer: 11.2 µM

Question: And the CC50 (NCI-H522; read-out: LC50)?
Answer: 24.7 µM

Question: And the GI50 (LOX IMVI)?
Answer: 1.86 µM

Question: What about the CC50 (LOX IMVI; read-out: LC50, LOX IMVI, 48 h) of the same compound?
Answer: 3.84 µM

Question: What about the GI50 (786-0) of the same compound?
Answer: 10.6 µM

Question: What about the CC50 (786-0; read-out: LC50) of the same compound?
Answer: 22.7 µM

Question: What about the GI50 (MDA-MB-468) of the same compound?
Answer: 4.53 µM

Question: What about the CC50 (MDA-MB-468; read-out: LC50) of the same compound?
Answer: 17 µM

Question: And the GI50 (K-562; K-562, 48 h)?
Answer: 2.98 µM

Question: What about the CC50 (K-562; read-out: LC50) of the same compound?
Answer: 30.4 µM

Question: What about the GI50 (EKVX) of the same compound?
Answer: 4.2 µM

Question: And the CC50 (EKVX; read-out: LC50)?
Answer: 15.7 µM

Question: What about the GI50 (A498) of the same compound?
Answer: 13 µM

Question: And the CC50 (A498; read-out: LC50)?
Answer: 26.2 µM

Question: What about the GI50 (SN12C) of the same compound?
Answer: 6.36 µM

Question: What about the CC50 (SN12C; read-out: LC50) of the same compound?
Answer: 19.9 µM

Question: What about the GI50 (COLO 205) of the same compound?
Answer: 11.2 µM

Question: What about the CC50 (COLO 205; read-out: LC50) of the same compound?
Answer: 24.8 µM

Question: What about the GI50 (M14) of the same compound?
Answer: 3.39 µM

Question: And the CC50 (M14; read-out: LC50)?
Answer: 12.9 µM

Question: And the GI50 (HS 578T)?
Answer: 12.7 µM

Question: What about the CC50 (HS 578T; read-out: LC50) of the same compound?
Answer: 49.5 µM

Question: What about the GI50 (A549/ATCC) of the same compound?
Answer: 10 µM

Question: What about the CC50 (A549/ATCC; read-out: LC50) of the same compound?
Answer: 25.4 µM

Question: What about the GI50 (PC-3) of the same compound?
Answer: 4.15 µM

Question: What about the CC50 (PC-3; read-out: LC50) of the same compound?
Answer: 18.2 µM

Question: What about the GI50 (SK-MEL-5) of the same compound?
Answer: 10.4 µM

Question: And the CC50 (SK-MEL-5; read-out: LC50)?
Answer: 22.2 µM

Question: What about the GI50 (HOP-92) of the same compound?
Answer: 6.15 µM

Question: What about the CC50 (HOP-92; read-out: LC50) of the same compound?
Answer: 20.7 µM

Question: And the GI50 (MOLT-4)?
Answer: 2.9 µM

Question: What about the CC50 (MOLT-4; read-out: LC50) of the same compound?
Answer: 9.61 µM

Question: What about the GI50 (HCC-2998) of the same compound?
Answer: 1.77 µM

Question: What about the CC50 (HCC-2998; read-out: LC50) of the same compound?
Answer: 3.61 µM

Question: And the GI50 (SNB-75)?
Answer: 8.41 µM

Question: What about the CC50 (SNB-75; read-out: LC50) of the same compound?
Answer: 22.7 µM

Question: What about the GI50 (CAKI-1) of the same compound?
Answer: 6.46 µM

Question: And the CC50 (CAKI-1; read-out: LC50)?
Answer: 19.7 µM

Question: And the GI50 (HL-60(TB))?
Answer: 3.81 µM

Question: What about the CC50 (HL-60(TB); read-out: LC50) of the same compound?
Answer: 30 µM

Question: What about the GI50 (SNB-19) of the same compound?
Answer: 12 µM

Question: And the CC50 (SNB-19; read-out: LC50)?
Answer: 24.3 µM

Question: And the GI50 (SF-268)?
Answer: 7.71 µM

Question: And the CC50 (SF-268; read-out: LC50)?
Answer: 22.5 µM

Question: And the GI50 (T-47D)?
Answer: 5.16 µM

Question: And the CC50 (T-47D; read-out: LC50)?
Answer: 19.6 µM

Question: And the GI50 (KM12)?
Answer: 2.38 µM

Question: And the CC50 (KM12; read-out: LC50)?
Answer: 6 µM

Question: What about the GI50 (UO-31) of the same compound?
Answer: 6.41 µM

Question: And the CC50 (UO-31; read-out: LC50)?
Answer: 19.9 µM

Question: And the GI50 (OVCAR-3)?
Answer: 2.04 µM

Question: And the CC50 (OVCAR-3; read-out: LC50)?
Answer: 5.61 µM

Question: And the GI50 (MDA-MB-231/ATCC)?
Answer: 8.38 µM

Question: And the CC50 (MDA-MB-231/ATCC; read-out: LC50)?
Answer: 20.8 µM

Question: What about the GI50 (HT29) of the same compound?
Answer: 1.91 µM

Question: What about the CC50 (HT29; read-out: LC50) of the same compound?
Answer: 3.95 µM

Question: What about the GI50 (U251; U251, 48 h) of the same compound?
Answer: 3.42 µM

Question: What about the CC50 (U251; read-out: LC50) of the same compound?
Answer: 13 µM
